Measured values reported in US6242445A, “Benzimidazole derivative” (Kureha Chemical Industry Co., Ltd., priority 1998, dated 2001).

Columns and labels:
[1] = test system: ICR female mice; experiment: Acute toxicity (single oral administration); type: in vivo
Description: Acute toxicity was evaluated in this Example. As a compound to be examined, 2-ethoxy-1-[[4'-(2"-N,N-dimethylamino-ethoxycarbonyl)phenyl]methyl]-1H-benzimidazole-6-carboxylic acid morpholide (Compound No. 13) prepared in Example 6 was used.
Five-week-old ICR female mice (5 mice per group) were bredfor acclimation for a week. Then, Compound No. 13 was dissolved or suspended in 0.5% methylcellulose aqueous solution, and orally administered to the mice in a single dosage (500 mg/kg). […] Further, as to Compound No. 55, Compound No. 57, Compound No. 59, and Compound No. 65 prepared in Examples 26, 28, 31, and 23, respectively, acute toxicity was also evaluated.

[2] = test system: kidney disease model rats; experiment: Action to lower blood pressure in kidney disease model rats; type: in vivo, Sprague-Dawley female rats; conditions: 20 mg/kg oral; for action of lowering the blood pressure: in comparison with the control group; for Blood pressure: systolic, tail cuff, average, two days after administration, control 210
Description: (§1) In this Example, an action to lower blood pressure was evaluated. That is, each of 2-ethoxy-1-[[4'- (2'-N,N-dimethylamino-ethoxycarbonyl) phenyl]methyl]-1H-benzimidazole-6-carboxylic acid morpholide (Compound No. 13) prepared in Example 6, 2-ethoxy-1-[[4'-(2"-morpholinoethoxycarbonyl)-phenyl]methyl]-1H-benzimidazole-6-carboxylic acid piperidinamide (Compound No. 57) prepared in Example 28, or the reference substance was forcibly orally administered to kidney disease model rats, and the action of lowering the blood pressure was observed. The kidney disease model rats were prepared by a ligature of branches of renal artery in accordance with a conventional method. Namely, the left hilum renalis of Sprague-Dawley female rats was exposed under anesthesia, and one of four secondary branches of the renal artery was left unligated, while the remaining three branches were ligated, respectively. After a week, the hilum renalis (artery, vein, and ureter) of the right kidney were further ligated to thereby prepare rats whose renal function was lowered to approximately 1/8 of the normal function. Each group consisted of eight rats. The drugs to be tested (20 mg/kg) were administered to each administering group, and only water was administered to a control group. Two days after the administration, the systolic blood pressure was measured by the tail cuff method using a blood pressure measuring apparatus (UR^5000; Ueda).

[3] = test system: kidney disease model rats; experiment: Action to kidney diseases, renal function indicatory values; type: in vivo, Sprague-Dawley female rats; conditions: for Creatinine clearance / blood urea nitrogen value / serum creatinine value / Creatinine / Blood urea nitrogen: 20 mg/kg/day, two weeks; for Creatinine / Blood urea nitrogen: serum; for Creatinine: control 2.0; for Blood urea nitrogen: control 100; for effects on renal function compared with reference substance: vs DuP753
Description: The kidney disease model rats were prepared by a ligature of branches of renal artery in accordance with a conventional method. Namely, the left hilum renalis of Sprague-Dawley female rats was exposed under anesthesia, and one of four secondary branches of the renal artery was left unligated, while the remaining three branches were ligated, respectively. After a week, the hilum renalis (artery, vein, and ureter) of the right kidney were further ligated to thereby prepare rats whose renal function was lowered to approximately 1/8 of the normal function. Each group consisted of eight rats. The drugs to be tested (20 mg/kg) were administered to each administering group, and only water was administered to a control group. Two days after the administration, the systolic blood pressure was measured by the tail cuff method using a blood pressure measuring apparatus (UR^5000; Ueda).
In this Example, an action to kidney diseases was evaluated on the basis of a renal function indicatory value.
Fifteen groups (8 rats per group) were prepared in a manner such that there was no major difference between the groups in the serum creatinine value and the blood urea nitrogen value indicating renal function. The rats in each group were allowed to freely take up food and water. […] To the rats in the control group, only water was forcibly orally administered every day. After two weeks, 0.2 ml of blood was collected from the carotid artery of the rats under anesthesia, and centrifuged to obtain serum. Using 25 μl of the serum, the serum creatinine (Scr) was measured by a creatinine analytical instrument (Beckman). Using 10 μl of the serum, the blood urea nitrogen (BUN) was measured by a BUN analytical instrument (Beckman). The creatinine clearance was evaluated as follows:
After the serum creatinine measurement, rats were placed in urinary metabolic cages for 24 hours to collect urine. A urinary creatine concentration (Ucr) was measured by a creatinine analytical instrument, and a total volume of urination (Uvol) was also measured. The creatinine clearance (CCr) was calculated by the following formula: [formula]
In the above formula, the unit of "Ucr" and "Scr" is "mg/ml" and the unit of "Uvol" is "ml".

[4] = test system: kidney disease model rats; experiment: Survival time of kidney diseased animals; type: in vivo, Sprague-Dawley female rats; conditions: for survival time / Average survival time: 20 mg/kg/day; for Average survival time: observation period eight weeks (upper limit), control 5.0; for effect on survival compared with reference substance: vs DuP753
Description: as §1
In this Example, an action to survival time of kidney diseased animals was evaluated. As compounds to be examined, 2-ethoxy-1-[[4'-(2"-N,N-dimethylamino-ethoxycarbonyl)-phenyl]methyl]-1H-benzimidazole-6-carboxylic acid morpholide (Compound No. 13) prepared in Example 6, and 2-ethoxy-1-[[4'-(2"-morpholinoethoxycarbonyl)phenyl]methyl]-1H-benzimidazole-6-carboxylic acid piperidinamide (Compound No. 57) prepared in Example 28 were used.
The kidney disease model rats were prepared as in Example 38. Fifteen groups (8 rats per group) were prepared in a manner such that there was no major difference between the groups in the serum creatinine value and the blood urea nitrogen value indicating renal function. The rats in each group were allowed to freely take up food and water. […] To the rats in the control group, only water was forcibly orally administered every day. If kidney diseases are aggravated, the rat will die of uremia. Thus, the survival time was observed as a comprehensive indication of the improvement of the effect on the kidney diseases. The observation period was eight weeks. Thus if all rats survived, the average survival time is eight weeks, and is an upper limit.

[5] = test system: SHR rats; experiment: Action on weight of heart in SHR rats; type: in vivo; conditions: 20 weeks; for Relative weight ratio / Heart weight / Blood pressure / Body weight: 20 mg/kg oral in drinking solution, average±standard deviation; for Relative weight ratio: control 0.338 ± 0.012; for Heart weight: control 1.430 ± 0.082; for Blood pressure: control 224 ± 49; for Body weight: control 423 ± 17; for heart weight based on hypercardia / lowering of blood pressure / myocardiopathy: 20 mg/kg
Description: In this Example, an action on a weight of a heart was evaluated. More particularly, 21-week-old SHR rats were divided into a control group (8 rats) and a test group (7 rats). The rats in the test group were allowed to freely drink a solution prepared by dissolving 2-ethoxy-1-[[4'-(2"-N,N-dimethylamino-ethoxycarbonyl)phenyl]methyl]-1H-benzimidazole-6-carboxylic acid morpholide (Compound No. 13) prepared in Example 6 or 2-ethoxy-1-[[4'-(2'-morpholinoethoxycarbonyl)-phenyl]methyl]-1H-benzimidazole-6-carboxylic acid piperidinamide (Compound No. 57) prepared in Example 28 for 20 weeks (20 mg/kg). After the oral administration was finished, the heart was taken, and the weight of the heart was measured.

SMILES | action of lowering the blood pressure [2] | Blood pressure [2] | Creatinine clearance ([3]; control 0.22) | Creatinine clearance ([3]; vs control) | blood urea nitrogen value ([3]; vs control) | serum creatinine value ([3]; vs control) | Creatinine [3] | Blood urea nitrogen [3] | effects on renal function compared with reference substance [3] | survival time [4] | Average survival time [4] | effect on survival compared with reference substance [4] | Relative weight ratio [5] | Heart weight [5] | Blood pressure [5] | Body weight [5] | heart weight based on hypercardia [5] | lowering of blood pressure [5] | myocardiopathy [5] | other results
CCOc1nc2ccc(C(=O)N3CCOCC3)cc2n1Cc1ccc(C(=O)OCCN(C)C)cc1 [Compound No. 13, 2-ethoxy-1-[[4'-(2"-N,N-dimethylaminoethoxycarbonyl)phenyl]methyl]-1H-benzimidazole-6-carboxylic acid morpholide] | an influence on the blood pressure was not substantially observed | 208 mmHg | 0.35 mL/min | clearly improved | clearly became lower values | clearly became lower values | 1.5 mg/dL | 75 mg/dL | comparable to those of the reference substance | clearly prolonged the survival time | 7.5 weeks | comparable or superior to that of the reference substance | 0.328 ± 0.007% | 1.392 ± 0.034 g | 232 ± 12 mmHg | 424 g | significantly reduced | without inducing a lowering of blood pressure | suppresses myocardiopathy | Number of deaths/number of survivals ([1]; 500 mg/kg single oral, deaths observed for 6 days): 0/5
CCOc1nc2ccc(C(=O)N3CCCCC3)cc2n1Cc1ccc(C(=O)OCCN2CCOCC2)cc1 [Compound No. 57, 2-ethoxy-1-[[4'-(2"-morpholinoethoxycarbonyl)phenyl]methyl]-1H-benzimidazole-6-carboxylic acid piperidinamide] | an influence on the blood pressure was not substantially observed | 205 mmHg | 0.33 mL/min | clearly improved | clearly became lower values | clearly became lower values | 1.5 mg/dL | 72 mg/dL | comparable to those of the reference substance | clearly prolonged the survival time | 7.5 weeks | comparable or superior to that of the reference substance | 0.324 ± 0.012% | 1.390 ± 0.077 g | 207 ± 14 mmHg | 429 g | significantly reduced | without inducing a lowering of blood pressure | suppresses myocardiopathy | Number of deaths/number of survivals ([1]; mouse, in vivo): 0/5
